Test results from US6962714B2, “Critical fluid antimicrobial compositions and their use and generation” (priority 2002, dated 2005).

Experiments:
Assay type in all cases: cell-based
[1] = system: Staphylococcus aureus ATCC 6538; experiment: Hard surface test, stainless steel coupon exposed to vent gas in closed vessel; conditions: S. aureus ATCC 6538, vent gas five minutes
Description: (§1) The efficacy of peroxyacetic acid antimicrobial delivered via CO2 gas was tested in a hard surface test against Escherichia coli and Staphylococcus aureus.
(§2) The coupons were exposed to the peroxyacetic acid antimicrobial vent gas for five minutes. Dry and wet methods were used for the testing. In the dry method, a dry film was generated on the coupon by adding a 20 μl suspension onto the coupon surface and drying the solution prior to the experiment. In the wet method, the 20 μl suspension was added to the coupon surface immediately before placing the coupon in the syringe and exposing it to the antimicrobial gas. After exposure to the antimicrobial gas for a set time period, the coupon was removed and placed in an appropriate neutralizer to stop the antimicrobial chemical activity. The bacteria remaining on the coupons were then incubated and the population reduction was determined.

[2] = system: Escherichia coli ATCC 11229; experiment: as above; conditions: E. coli ATCC 11229, vent gas five minutes
Description: as §1, §2

[3] = system: Staphylococcus aureus ATCC 6538; experiment: Aqueous suspension (solution) test, antimicrobial vent gas bubbled through broth; conditions: S. aureus ATCC 6538, POAA in CO2 gas bubbled through 10 ml bacteria solution
Description: (§3) Exposure times of 30 seconds and two minutes were tested.

[4] = system: Escherichia coli ATCC 11229; experiment: as above; conditions: E. coli ATCC 11229, POAA in CO2 gas bubbled through 10 ml bacteria solution
Description: as §3

[5] = dry method (dry bacterial film on coupon)
[6] = wet method (20 μl bacterial suspension on coupon)
[7] = exposure 2 minutes, listed as peroxyacetic acid

CC(=O)OO [POAA, peroxyacetic acid]
Log Reduction [1, 5]: 5.5 log | Log Reduction [1, 6]: 5.5 log | Log Reduction [2, 5]: 6.5 log | Log Reduction [2, 6]: 6.5 log | Log Reduction ([3]; exposure 30 seconds): 2.5 log | Log Reduction ([3]; exposure 2 minutes): 6.3 log | Log Reduction [3, 7]: greater than 6 log | Log Reduction ([4]; exposure 30 seconds): 1.1 log | Log Reduction ([4]; exposure 2 minutes): 6.1 log | Log Reduction [4, 7]: greater than 6 log
